pIC50: −log10 of the molar value.
Biological target: Recombinant human PDK1 enzyme (aa 52-556) (Homo sapiens (Human), UniProt O15530)
Experiment: PDK1 kinase assay
Type: biochemical
Conditions: in vitro kinase assay, His6-PDK1 (aa 52-556), PDKtide, P33-ATP
Protocol: The activity of the compounds according to the invention on the kinase PDK1 which inhibits the signal transduction pathway is determined in an in vitro kinase assay with recombinantly prepared protein:
Recombinant human PDK1 enzyme (aa 52-556) linked at its N-terminal end to His6 is isolated from baculovirus-infected insect cells. Purified enzyme may be obtained for example from the University of Dundee, Scotland. The following components are combined in a well of a 96-well round-based dish (Greiner bio-one, No. 650101): • 15 μL of compound to be tested in varying concentrations (e.g. starting at 10 μM, and diluted in steps of 1:5) in APT buffer (50 mM Tris/Cl pH 7.5; 0.05% β-mercaptoethanol; 10 mM Mg-acetate; 0.0166% Tween 20; 3.33% DMSO) • 15 μL His6-PDK1 (aa 52-556) 3.33 ng/well) and PDKtide ([…]), synthesised by Pepceuticals Limited, Nottingham, United Kingdom; 25 μM final concentration); His6-PDK1 and PDKtide are together diluted accordingly in assay buffer (50 mM tris pH 7.5, 0.05% β-mercaptoethanol, 10 mM Mg-acetate); PDKtide is present in this mixture as an 83.3 μM solution. These 30 μl are routinely incubated for 30 min at RT. • 20 μL ATP solution (25 μM ATP with 1.0 μCi/well gamma-P33-ATP). The final concentration of Tween 20 is 0.005%.
The reaction is started by adding the ATP solution and the mixture is incubated for 90 min at RT. At the start of the reaction the dishes are shaken gently. The reaction is stopped by the addition of 50 μL/well of 500 mM phosphoric acid (H3PO4) and incubated for about 20 min at RT. The precipitate is transferred by harvesting onto filter plates (96-well microtitre filter plate: UniFilter GF/C; Perkin Elmer; No. 6005174), then washed 6 times with 50 mM H3PO4 and dried at 60° C. Then the plate is stuck down with sealing tape, 25 μL/well of scintillation solution (Microscint 0; Perkin Elmer; No. 6013611) are added and the amount of P33 precipitated is measured using the Wallac Betacounter. The measured data are evaluated using Graphpad Prism software.

Recombinant human PDK1 enzyme (aa 52-556), sequence (O15530 52-556): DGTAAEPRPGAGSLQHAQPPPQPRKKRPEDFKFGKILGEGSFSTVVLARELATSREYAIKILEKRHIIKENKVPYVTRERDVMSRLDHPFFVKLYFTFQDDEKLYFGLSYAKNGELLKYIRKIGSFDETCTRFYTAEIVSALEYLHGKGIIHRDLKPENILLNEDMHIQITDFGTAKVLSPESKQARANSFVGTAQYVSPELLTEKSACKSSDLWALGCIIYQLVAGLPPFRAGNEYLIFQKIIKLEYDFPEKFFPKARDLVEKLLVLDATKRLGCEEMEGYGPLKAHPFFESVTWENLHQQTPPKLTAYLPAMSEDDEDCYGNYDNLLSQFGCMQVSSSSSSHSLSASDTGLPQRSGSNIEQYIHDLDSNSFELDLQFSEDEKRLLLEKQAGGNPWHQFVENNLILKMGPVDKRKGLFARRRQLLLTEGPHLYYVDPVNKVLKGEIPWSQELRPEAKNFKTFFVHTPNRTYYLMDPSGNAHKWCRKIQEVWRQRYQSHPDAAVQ

SMILES | pIC50
CN(C)CCCNc1ccnc2ccc(C#CCNC(=O)c3cncn(Cc4ccc(F)c(F)c4)c3=O)cc12 [I-119] | 6.26
CN(C)c1ccnc2ccc(C#CCNC(=O)c3cncn(Cc4ccc(F)c(F)c4)c3=O)cc12 [I-90] | 6.96
N#Cc1cnc2ccc(C#CCNC(=O)c3cccn(Cc4ccc(F)c(F)c4)c3=O)cc2c1NCC1CCCCC1 [II-97] | 5.98
CNCCCN(C)c1ncnc2ccc(C#CCNC(=O)c3cccn(Cc4ccc(F)c(F)c4)c3=O)cc12 [II-28] | 6.96
CN1CCC(Oc2ccnc3ccc(C#CCNC(=O)c4cccn(Cc5ccc(F)c(F)c5)c4=O)cc23)C1 (stereo not drawn) [I-107] | 6.67
CN(C)CCOc1ccnc2ccc(C#CCNC(=O)c3cncn(Cc4ccc(F)c(F)c4)c3=O)cc12 [I-99] | 7.44
CNc1ncnc2ccc(C#CCNC(=O)c3cccn([C@@H](C)c4ccc(F)c(F)c4)c3=O)cc12 [II-60] | 8.10
O=C(NCC#Cc1ccc2ncc(N[C@H]3CC[C@H](N4CCN(CC5CC5)CC4)CC3)nc2c1)c1ccnn(Cc2ccc(F)c(F)c2)c1=O [I-62] | 8.70
CNC(=O)c1cnc2ccc(C#CCNC(=O)c3cncn(Cc4ccc(F)c(F)c4)c3=O)cc2c1 [II-72] | 7.35
C[C@@H](c1ccc(F)c(F)c1)n1cccc(C(=O)NCC#Cc2ccc3ncc(NC4CCN(C5COC5)CC4)nc3c2)c1=O [I-58] | 8.10
CC(C)NC(=O)c1cnc2ccc(C#CCNC(=O)c3cncn(Cc4ccc(F)c(F)c4)c3=O)cc2c1 [II-77] | 7.28
CN1CC(NC(=O)c2cnc3ccc(C#CCNC(=O)c4cncn(Cc5ccc(F)c(F)c5)c4=O)cc3c2)C1 [II-81] | 7.70
O=C(NCC#Cc1ccc2nccc(NC3CC3)c2c1)c1cncn(Cc2ccc(F)c(F)c2)c1=O [I-115] | 6.11
CC(c1cc(F)c(F)c(F)c1)n1cccc(C(=O)NCC#Cc2ccc3nccc(OC[C@@H]4CCCN(C)C4)c3c2)c1=O (stereo partly drawn) [I-125.18] | 8.70
CC(N)CCOc1ccnc2ccc(C#CCNC(=O)c3cccn(Cc4ccc(F)c(F)c4)c3=O)cc12 (stereo not drawn) [I-125.7] | 7.49
O=C(NCC#Cc1ccc2nccc(OC[C@@H]3CCCN(CCN4CCOCC4)C3)c2c1)c1cccn(Cc2cc(F)c(F)c(F)c2)c1=O [I-125.19] | 8.52
CN(C)CCOc1ccnc2ccc(C#CCNC(=O)c3cccn(Cc4ccc(F)c(F)c4)c3=O)cc12 [I-98] | 7.60
CCN1CCC(CN(C)c2ncnc3ccc(C#CCNC(=O)c4cccn(Cc5ccc(F)c(F)c5)c4=O)cc23)C1 (stereo not drawn) [II-47] | 6.93
NC1CCC(Nc2cnc3ccc(C#CCNC(=O)c4cncn(Cc5ccc(F)c(F)c5)c4=O)cc3n2)C1 (stereo not drawn) [I-44] | 7.96
CN(C)CCNc1ccnc2ccc(C#CCNC(=O)c3cncn(Cc4ccc(F)c(F)c4)c3=O)cc12 [I-117] | 6.00
CN(Cc1ccccc1)c1c(C#N)cnc2ccc(C#CCNC(=O)c3cccn(Cc4ccc(F)c(F)c4)c3=O)cc12 [II-98] | 6.74

SMILES | pIC50
CCN1CCC(Nc2cnc3ccc(C#CCNC(=O)c4cccn([C@H](CO)c5cccc(F)c5)c4=O)cc3c2)CC1 [I-76] | 8.70
CC(c1ccc(F)c(F)c1)n1cccc(C(=O)NCC#Cc2ccc3nccc(OC[C@H]4CCN(C)C4)c3c2)c1=O (stereo partly drawn) [I-125.10] | 8.52
CC1(CNc2ncnc3ccc(C#CCNC(=O)c4cccn(Cc5ccc(F)c(F)c5)c4=O)cc23)COC1 [II-36] | 6.33
Cc1ccnc2ccc(C#CCNC(=O)c3cncn(Cc4ccc(F)c(F)c4)c3=O)cc12 [II-92] | 7.25
COc1ccnc2ccc(C#CCNC(=O)c3cccn(Cc4ccc(F)c(F)c4)c3=O)cc12 [I-92] | 6.89
CN1CCCN(c2ncnc3ccc(C#CCNC(=O)c4cccn(Cc5ccc(F)c(F)c5)c4=O)cc23)CC1 [II-29] | 6.81
COCCN1CCC(Nc2cnc3ccc(C#CCNC(=O)c4cccn(Cc5ccc(F)c(F)c5)c4=O)cc3c2)CC1 [I-74] | 8.10
COc1ccnc2ccc(C#CCNC(=O)c3cncn(Cc4ccc(F)c(F)c4)c3=O)cc12 [I-91] | 7.42
COCCN1CCC(Nc2cnc3ccc(C#CCNC(=O)c4ccnn(Cc5ccc(F)c(F)c5)c4=O)cc3n2)CC1 [I-53] | 8.10
CC(C)(C)COc1ccnc2ccc(C#CCNC(=O)c3cccn(C(CO)c4ccc(F)c(F)c4)c3=O)cc12 (stereo not drawn) [I-125.14] | 7.22
O=C(NCC#Cc1ccc2nccc(C3=CCCNC3)c2c1)c1cncn(Cc2ccc(F)c(F)c2)c1=O [II-91] | 7.85
O=C(NCC#Cc1ccc2ncc(N[C@H]3CC[C@H](N4CCN(CC5CC5)CC4)CC3)nc2c1)c1cccn([C@H](CO)c2cccc(F)c2)c1=O [I-61] | 8.70
CN1CCC(Nc2cnc3ccc(C#CCNC(=O)c4cncn(Cc5ccc(F)c(F)c5)c4=O)cc3n2)C1 (stereo not drawn) [I-16] | 7.48
CN(C)CC(O)COc1ccnc2ccc(C#CCNC(=O)c3cccn(Cc4ccc(F)c(F)c4)c3=O)cc12 (stereo not drawn) [I-105] | 7.33
N#Cc1cnc2ccc(C#CCNC(=O)c3cccn(Cc4ccc(F)c(F)c4)c3=O)cc2c1NCc1ccccc1 [II-102] | 6.06
CN(C)CCCOc1ccnc2ccc(C#CCNC(=O)c3cccn(Cc4cc(F)c(F)c(F)c4)c3=O)cc12 [I-125.2] | 8.30
CN1CCC[C@@H](COc2ccnc3ccc(C#CCNC(=O)c4cccn(C(CO)c5cc(F)c(F)c(F)c5)c4=O)cc23)C1 (stereo partly drawn) [I-125.21] | 8.70
N[C@H]1CC[C@@H](Nc2cnc3ccc(C#CCNC(=O)c4cncn(Cc5ccc(F)c(F)c5)c4=O)cc3n2)CC1 [I-33] | 7.40
O=C(NC1CC1)c1cnc2ccc(C#CCNC(=O)c3cncn(Cc4ccc(F)c(F)c4)c3=O)cc2c1 [II-73] | 7.51
O=C(NCC#Cc1ccc2ncc(NC3CCN(C4CC4)CC3)nc2c1)c1cncn(Cc2ccc(F)c(F)c2)c1=O [I-23] | 8.10
CN1CCC(NC(=O)c2cnc3ccc(C#CCNC(=O)c4cncn(Cc5ccc(F)c(F)c5)c4=O)cc3c2)C1 (stereo not drawn) [II-87] | 7.62

SMILES | pIC50
COCCN1CCC(Nc2cnc3ccc(C#CCNC(=O)c4cccn([C@H](CO)c5cccc(F)c5)c4=O)cc3n2)CC1 [I-55] | 8.40
CN(C)C(=O)c1cnc2ccc(C#CCNC(=O)c3cncn(Cc4ccc(F)c(F)c4)c3=O)cc2c1 [II-86] | 6.45
CNc1ncnc2cc(Cl)c(C#CCNC(=O)c3cncn(Cc4ccc(F)c(F)c4)c3=O)cc12 [I-5] | 6.64
CC(c1cc(F)c(F)c(F)c1)n1cccc(C(=O)NCC#Cc2ccc3nccc(OC[C@H]4CCN(C)C4)c3c2)c1=O (stereo partly drawn) [I-125.11] | 8.40
Cc1c(C#CCNC(=O)c2cncn(Cc3ccc(F)c(F)c3)c2=O)ccc2ncc(C(=O)N(C)C)cc12 [II-70] | 6.73
CN1CCC(Nc2cnc3ccc(C#CCNC(=O)c4cncn(Cc5ccc(F)c(F)c5)c4=O)cc3n2)CC1 [I-19] | 8.40
CCN(C)c1c(C#N)cnc2ccc(C#CCNC(=O)c3cccn(Cc4ccc(F)c(F)c4)c3=O)cc12 [II-103] | 7.11
CN(C)CCCCOc1ccnc2ccc(C#CCNC(=O)c3cncn(Cc4ccc(F)c(F)c4)c3=O)cc12 [I-125.3] | 8.30
CN(C)[C@H]1CC[C@H](Nc2cnc3ccc(C#CCNC(=O)c4cncn(Cc5ccc(F)c(F)c5)c4=O)cc3n2)CC1 [I-43] | 8.30
NC(=O)CCNc1ncnc2ccc(C#CCNC(=O)c3cccn(Cc4ccc(F)c(F)c4)c3=O)cc12 [II-33] | 7.10
CN(C)CCCN(C)c1ccnc2ccc(C#CCNC(=O)c3cncn(Cc4ccc(F)c(F)c4)c3=O)cc12 [I-89] | 7.64
CN1CC[C@H](COc2ccnc3ccc(C#CCNC(=O)c4cccn(Cc5cc(F)c(F)c(F)c5)c4=O)cc23)C1 [I-125.9] | 8.70
CNc1ncnc2ccc(C#CCNC(=O)c3cncn(Cc4ccc(F)c(F)c4)c3=O)cc12 [II-1] | 7.92
CCN1CCN(C(=O)c2cnc3ccc(C#CCNC(=O)c4cncn(Cc5ccc(F)c(F)c5)c4=O)cc3c2)CC1 [II-78] | 6.40
O=C(NCC#Cc1ccc2nccc(NC3CC3)c2c1)c1cccn(Cc2ccc(F)c(F)c2)c1=O [I-116] | 6.00
O=C(NCC#Cc1ccc2ncnc(NC3CCN(Cc4ccccc4)CC3)c2c1)c1cncn(Cc2ccc(F)c(F)c2)c1=O [II-23] | 6.85
CN1CCC(Cc2cnc3ccc(C#CCNC(=O)c4cncn(Cc5ccc(F)c(F)c5)c4=O)cc3n2)CC1 [I-67] | 6.03
O=C(NCC#Cc1ccc2nccc(OCC3CCCCO3)c2c1)c1cncn(Cc2ccc(F)c(F)c2)c1=O (stereo not drawn) [I-108] | 6.94
CCN(CC)c1ncnc2ccc(C#CCNC(=O)c3cccn([C@H](CO)c4ccccc4)c3=O)cc12 [II-56] | 8.22
O=C(NCC#Cc1ccc2ncc(N[C@H]3CC[C@H](N4CCOCC4)CC3)nc2c1)c1cncn(Cc2ccc(F)c(F)c2)c1=O [I-40] | 8.70
CN1CCC(Oc2ccnc3ccc(C#CCNC(=O)c4cccn(Cc5ccc(F)c(F)c5)c4=O)cc23)CC1 [I-112] | 7.15

From patent publication US8575203B2, “Chemical compounds” (Boehringer Ingelheim International GmbH, priority 2010, dated 2013)
